Test [1] relates to Neomycin-bindender Riboschalter (2FA-markiert) (RNA, riboswitch, 2-fluoroadenine at 16, 17 and 24) GGCUGCUUGUCCUUUAAUGGUCCAGCC
The experiment in a line: 19F NMR titration and CEST. Conditions: 303 K; 215-1200 µM samples, 1 to 1.5 equivalents of ligand.

Test [2] has the same test system. The experiment in a line: 19F NMR CEST. The following applies: 303 K; derived from kex = [L]kon + koff = 88 ± 8 s^-1; subsaturating ligand.

Molecules are shown by their SMILES.

On to `NC[C@@H]1O[C@H](O[C@H]2[C@@H](O)[C@H](O[C@@H]3[C@@H](O)[C@H](N)C[C@H](N)[C@H]3O[C@H]3O[C@H](CN)[C@@H](O)[C@H](O)[C@H]3N)O[C@@H]2CO)[C@H](N)[C@@H](O)[C@@H]1O`, for which the binding result in test [1] is “yes”.

On to `NC[C@H]1O[C@H](O[C@H]2[C@H](O[C@@H]3O[C@H](CO)[C@@H](O)[C@H]3O)[C@@H](O)[C@H](N)C[C@@H]2N)[C@H](N)[C@@H](O)[C@@H]1O`, for which, in test [2], the koff was ~ 1.4 s^-1.

For the origin of these results see PMC10953372 (2023).
